Like-named read-outs stand apart in the source and are kept apart here.
Assays:
Assay type in all cases: cell-based
[1] = tested on: panel of 500 tumor cell lines; assay: antiproliferative activity, panel of 500 tumor cell lines (OmniScreen)
Source text: (§1) To determine associations of genomic alterations with compound 1′ sensitivity, 458 were mapped to a cell line present in DepMap (21Q3). Of the 458 cell lines mapped, there were 440 with available mutation data in DepMap. Cell line mutation and copy number data were accessed and for mutations, the data were filtered to include variants with a “damaging” or “other non-conserving” annotation only, in order to select variants which are more likely to be functionally important. The top quartile of cell lines based on their compound 1′IC50 values were defined as groups for comparison with the bottom quartile.

143B = assay: antiproliferative activity (OmniScreen); conditions: Homo sapiens, Bone, 72 hours, read-out: Absolute IC50
Source text: as §1

Calu-6 = assay: antiproliferative activity (OmniScreen); conditions: Homo sapiens; Calu-6, Lung, 72 hours; read-out: Absolute IC50
Source text: as §1

CoC1/DDP = assay: antiproliferative activity (OmniScreen); conditions: Ovary, 72 hours, read-out: Absolute IC50
Source text: as §1

DV-90 = assay: antiproliferative activity (OmniScreen); conditions: Homo sapiens; DV-90, Lung, 72 hours; read-out: Absolute IC50
Source text: as §1

HCC44 = assay: antiproliferative activity (OmniScreen); conditions: Homo sapiens; HCC44, Lung, 72 hours; read-out: Absolute IC50
Source text: as §1

HEC-1-B = assay: antiproliferative activity (OmniScreen); conditions: Homo sapiens, Uterus, 72 hours, read-out: Absolute IC50
Source text: as §1

LCLC-97TM1 = assay: antiproliferative activity (OmniScreen); conditions: Homo sapiens; LCLC-97TM1, Lung, 72 hours; read-out: Absolute IC50
Source text: as §1

LS513 = assay: antiproliferative activity (OmniScreen); conditions: Homo sapiens, LS-513; LS513, Large intestine/Colorectum, 72 hours; read-out: Absolute IC50
Source text: as §1

MOLP8 = assay: antiproliferative activity (OmniScreen); conditions: Homo sapiens, MOLP-8; MOLP8, Blood/Myeloma, 72 hours; read-out: Absolute IC50
Source text: as §1

NCI-H1944 = assay: antiproliferative activity (OmniScreen); conditions: Homo sapiens; NCI-H1944, Lung, 72 hours; read-out: Absolute IC50
Source text: as §1

NCI-H2122 = assay: antiproliferative activity (OmniScreen); conditions: Homo sapiens; NCI-H2122, Lung, 72 hours; read-out: Absolute IC50
Source text: as §1

NCI-H358 = assay: antiproliferative activity (OmniScreen); conditions: Homo sapiens; NCI-H358, Lung, 72 hours; read-out: Absolute IC50
Source text: as §1

Panc 05.04 = assay: antiproliferative activity (OmniScreen); conditions: Panc 05.04, Pancreas, 72 hours; read-out: Absolute IC50
Source text: as §1

RBE = assay: antiproliferative activity (OmniScreen); conditions: Liver/Bile duct, 72 hours, read-out: Absolute IC50
Source text: as §1

SU-DHL-10 = assay: antiproliferative activity (OmniScreen); conditions: Homo sapiens, SU-DHL10; SU-DHL-10, Lymphoma, 72 hours; read-out: Absolute IC50
Source text: as §1

SU.86.86 = assay: antiproliferative activity (OmniScreen); conditions: Homo sapiens; SU.86.86, Pancreas, 72 hours; read-out: Absolute IC50
Source text: as §1

UM-UC-3 = assay: antiproliferative activity (OmniScreen); conditions: Homo sapiens, UMUC3; UM-UC-3, Bladder, 72 hours; read-out: Absolute IC50
Source text: as §1

A549 = assay: in vitro cytotoxicity, MTT assay; conditions: Homo sapiens; A549, Lung, KRAS p.G12S
Description: (§2) Cultivation of cells was performed according to standard procedures with the media recommended by the provider. The cells, in a total volume of 100 μL, were seeded in a 96-well plate with a white bottom (#3610). After a 24h incubation period at 37° C. and 5% CO2 the medium was exchanged by adding 90 μL fresh medium. The treatment started by adding the test compound in 10 μL of culture medium to the cells in triplicates. Concentrations ranging from 10^−6 M to 10^−13 M were chosen. The proliferation was detected using the MTT assay (ATCC). At the end of the incubation period the MTT reagent was added to all samples for 4h. Lysis of the cells followed by addition of the detergent was done overnight. The formed dye was detected at 570 nm. The proliferation of cells was defined as the 100% value.

COLO205 = assay: in vitro cytotoxicity, MTT assay; conditions: Homo sapiens, COLO 205; COLO205, Colorectal, KRAS WT
Description: as §2

HCT116 = assay: in vitro cytotoxicity, MTT assay; conditions: Homo sapiens, HCT-116; HCT116, Colorectal, KRAS p.G13D
Description: as §2

HCT15 = assay: in vitro cytotoxicity, MTT assay; conditions: Homo sapiens, HCT-15; HCT15, Colorectal, KRAS p.G13D
Description: as §2

HCT8 = assay: in vitro cytotoxicity, MTT assay; conditions: Homo sapiens, HCT-8; HCT8, Colorectal, KRAS WT
Description: as §2

HT-29 = assay: in vitro cytotoxicity, MTT assay; conditions: Homo sapiens; HT-29, Colorectal, KRAS WT
Description: as §2

MIAPaCa2 = assay: in vitro cytotoxicity, MTT assay; conditions: Homo sapiens, MIA PaCa-2; MIAPaCa2, Pancreatic, KRAS pG12C
Description: as §2

NCI-H460 = assay: in vitro cytotoxicity, MTT assay; conditions: Homo sapiens; NCI-H460, Lung, KRAS p.Q61H
Description: as §2

SW480 = assay: in vitro cytotoxicity, MTT assay; conditions: Homo sapiens; SW480, Colorectal, KRAS p.G12V
Description: as §2

SW620 = assay: in vitro cytotoxicity, MTT assay; conditions: Homo sapiens, SW-620; SW620, Colorectal, KRAS p.G12V
Description: as §2

SW837 = assay: in vitro cytotoxicity, MTT assay; conditions: Homo sapiens; SW837, Colorectal, KRAS pG12C
Description: as §2

[2] = tested on: KRAS mutant colorectal and lung cancer cell lines; assay: in vitro cytotoxicity, MTT assay, summary; conditions: multiple KRAS mutant colorectal and lung cancer cell lines
Description: as §2

## COc1cc(F)ccc1-c1cc(Nc2cc(CS(C)(=N)=O)ccn2)ncc1F (single isomer, unassigned; (+)) [Compound 1′, (+)5-fluoro-4-(4-fluoro-2-methoxyphenyl)-N-{4-[(S-methylsulfonimidoyl)methyl]pyridin-2-yl}pyridin-2-amine]
[1]; N=110 cell lines with mutation data in DepMap, read-out: IC50 bottom quartile (most sensitive cell lines)
  IC50: ≤ 90.5 nM
[1]; N=130 cell lines with mutation data in DepMap, read-out: IC50 top quartile (least sensitive cell lines)
  IC50: ≥ 152 nM
[1]; panel of 500 tumor cell lines, 72 hours of treatment, read-out: IC50 range, lower end
  IC50: 28 nM
[1]; panel of 500 tumor cell lines, 72 hours of treatment, read-out: IC50 range, upper end
  IC50: 2100 nM
[1]; panel of 500 tumor cell lines, 72 hours of treatment, read-out: mean IC50
  IC50: 113 nM
143B
  IC50: 73 nM
Calu-6
  IC50: 39 nM
CoC1/DDP
  IC50: 72 nM
DV-90
  IC50: 90 nM
HCC44
  IC50: 90 nM
HEC-1-B
  IC50: 67 nM
LCLC-97TM1
  IC50: 46 nM
LS513
  IC50: 51 nM
MOLP8
  IC50: 80 nM
NCI-H1944
  IC50: 75 nM
NCI-H2122
  IC50: 70 nM
NCI-H358
  IC50: 41 nM
Panc 05.04
  IC50: 38 nM
RBE
  IC50: 72 nM
SU-DHL-10
  IC50: 74 nM
SU.86.86
  IC50: 82 nM
UM-UC-3
  IC50: 67 nM
A549
  IC50: 98 nM
COLO205
  IC50: 70 nM
HCT116
  IC50: 46 nM
HCT15
  IC50: 33.5 nM
HCT8
  IC50: 83 nM
HT-29
  IC50: 83 nM
MIAPaCa2
  IC50: 128 nM
NCI-H460
  IC50: 75 nM
SW480
  IC50: 143 nM
SW620
  IC50: > 500 nM
SW837
  IC50: 620 nM
[2]
  activity against KRAS mutant cancer cell lines: active
